Measured values: PMC5681660, “Reduced hepatitis B and D viral entry using clinically applied drugs as novel inhibitors of the bile acid transporter NTCP” (Scientific Reports, 2017)
Where a name gives a salt, the structure may show the parent alone. Read-outs that look alike come from different tables or passages of the source.

Target: T1, human NTCP (Homo sapiens, UniProt Q14973)
T1 sequence (Q14973 1-349): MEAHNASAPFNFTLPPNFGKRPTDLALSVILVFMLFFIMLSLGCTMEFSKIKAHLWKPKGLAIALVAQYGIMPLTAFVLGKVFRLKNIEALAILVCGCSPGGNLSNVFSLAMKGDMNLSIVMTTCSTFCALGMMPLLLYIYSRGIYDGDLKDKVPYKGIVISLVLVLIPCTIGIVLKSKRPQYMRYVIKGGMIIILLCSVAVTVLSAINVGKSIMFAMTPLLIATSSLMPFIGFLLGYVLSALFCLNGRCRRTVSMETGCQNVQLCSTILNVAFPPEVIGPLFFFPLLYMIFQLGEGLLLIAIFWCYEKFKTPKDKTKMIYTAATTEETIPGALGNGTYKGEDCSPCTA
Test: Screening taurocholate uptake assay (96-well, [14C]taurocholate, 10 µM drug)

[1] = combined ranking of functional and binding screening assays
[2] = screening taurocholate uptake, 10 µM drug
[3] = ranking over the functional and the binding screening assay
[4] = screening taurocholate uptake, 10 µM drug, B-score

Row | SMILES | Ranking score [1] | B-score functional assay [2] | Ranking score [3] | B-score functional assay [4] | B-score functional assay
1 | CCCC(=O)Nc1ncnc2c1ncn2[C@@H]1O[C@@H]2COP(=O)([O-])O[C@H]2[C@H]1OC(=O)CCC.[Na+] [Bucladesine sodium salt] | 477.022 | -0.403 |  |  | 
2 | CCCC1O[C@@H]2C[C@H]3[C@@H]4CCC5=CC(=O)C=C[C@]5(C)[C@H]4[C@@H](O)C[C@]3(C)[C@]2(C(=O)CO)O1 (stereo partly drawn) [Budesonide] | 628.462 | -0.64 |  |  | 
3 | CCCCOc1ccc(CC(=O)NO)cc1 [Bufexamac] |  | -0.678 | 265.556 |  | 
4 | CCCCN1CCCCC1C(=O)Nc1c(C)cccc1C (stereo not drawn) [Bupivacaine hydrochloride] |  | -1.136 | 231.991 |  | 
5 | CC(NC(C)(C)C)C(=O)c1cccc(Cl)c1 (stereo not drawn) [Bupropion hydrochloride] | 557.749 | 0.583 |  |  | 
6 | O=C1CC2(CCCC2)CC(=O)N1CCCCN1CCN(c2ncccn2)CC1 [Buspirone hydrochloride] |  | -0.772 | 215.998 |  | 
7 | CS(=O)(=O)OCCCCOS(C)(=O)=O [Busulfan] |  | -1.026 | 269.796 |  | 
8 | Clc1ccc(CCC(Cn2ccnc2)Sc2c(Cl)cccc2Cl)cc1 (stereo not drawn) [Butoconazole nitrate] |  | -3.692 | 196.25 |  | 
9 | C=C1/C(=C\C=C2/CCC[C@]3(C)[C@@H]([C@H](C)/C=C/[C@@H](O)C4CC4)CC[C@@H]23)C[C@@H](O)C[C@@H]1O [Calcipotriene] |  | -4.364 | 164.682 |  | 
10 | C[N+](C)(C)CCOC(N)=O [Carbachol] | 511.9 | 0.619 |  |  | 
11 | CC1(C)[C@@H](OC(=O)CCC(=O)O)CC[C@]2(C)[C@H]3C(=O)C=C4[C@@H]5C[C@@](C)(C(=O)O)CC[C@]5(C)CC[C@@]4(C)[C@]3(C)CC[C@@H]12 [Carbenoxolone disodium salt] |  | -5.734 | 79.4984 |  | 
12 | C[C@@](Cc1ccc(O)c(O)c1)(NN)C(=O)O [Carbidopa] | 597.675 | 0.686 |  |  | 
13 | CCOC(=O)n1ccn(C)c1=S [Carbimazole] |  | -0.455 | 161.053 |  | 
14 | CC(C)(C)NCC(O)COc1cccc2c1CCC(=O)N2 (stereo not drawn) [Carteolol hydrochloride] | 570.247 | -0.486 |  |  | 
15 | C=CC1=C(C(=O)O)N2C(=O)[C@@H](NC(=O)/C(=N\O)c3csc(N)n3)[C@H]2SC1 [Cefdinir] | 598.124 | -0.454 |  |  | 
16 | CO/N=C(\C(=O)N[C@@H]1C(=O)N2C(C(=O)O)=C(C[N+]3(C)CCCC3)CS[C@H]12)c1csc(N)n1 [Cefepime hydrochloride] | 1157.98 |  |  | 1.484 | 
17 | C=CC1=C(C(=O)O)N2C(=O)[C@@H](NC(=O)/C(=N\OCC(=O)O)c3csc(N)n3)[C@H]2SC1 [Cefixime] |  | -2.268 | 185.952 |  | 
18 | CO[C@@]1(NC(=O)CSCC#N)C(=O)N2C(C(=O)O)=C(CSc3nnnn3C)CS[C@@H]21 [Cefmetazole sodium salt] |  | -1.174 | 266.713 |  | 
19 | NCc1ccccc1CC(=O)N[C@@H]1C(=O)N2C(C(=O)O)=C(CSc3nnnn3CC(=O)O)CS[C@H]12 [Ceforanide] | 1237.77 |  |  | 3.778 | 
20 | CN(C)CCn1nnnc1SCC1=C(C(=O)O)N2C(=O)[C@@H](NC(=O)Cc3csc(N)n3)[C@H]2SC1 [Cefotiam hydrochloride] |  | 1.511 | 197.995 |  | 
21 | Cc1cc(O)c(C(=O)N[C@@H](C(=O)N[C@@H]2C(=O)N3C(C(=O)O)=C(CSc4nnnn4C)CS[C@H]23)c2ccc(O)cc2)cn1 [Cefpiramide] |  | -1.403 | 261.897 |  | 
22 | COCC1=C(C(=O)OC(C)OC(=O)OC(C)C)N2C(=O)[C@@H](NC(=O)/C(=N\OC)c3csc(N)n3)[C@H]2SC1 (stereo partly drawn) [Cefpodoxime proxetil] | 640.176 | -0.201 |  |  | 
23 | CC(C)(O/N=C(\C(=O)N[C@@H]1C(=O)N2C(C(=O)[O-])=C(C[n+]3ccccc3)CS[C@H]12)c1csc(N)n1)C(=O)O [Ceftazidime pentahydrate] | 560.357 | -1.028 |  |  | 
24 | CO/N=C(\C(=O)N[C@@H]1C(=O)N2C(C(=O)OC(C)OC(C)=O)=C(COC(N)=O)CS[C@H]12)c1ccco1 (stereo partly drawn) [Cefuroxime axetil] | 621.898 | -0.317 |  |  | 
25 | C[C@H](CCC(=O)O)[C@H]1CC[C@H]2[C@@H]3[C@H](O)C[C@@H]4C[C@H](O)CC[C@]4(C)[C@H]3CC[C@]12C [Chenodiol] |  | -1.277 | 40.9878 |  | 
26 | O=C(O)CCCc1ccc(N(CCCl)CCCl)cc1 [Chlorambucil] |  | -1.869 | 169.183 |  | 
27 | O=C(N[C@H](CO)[C@H](O)c1ccc([N+](=O)[O-])cc1)C(Cl)Cl [Chloramphenicol] | 594.757 | 2.451 |  |  | 

Row | SMILES | Ranking score [1] | B-score functional assay [2] | Ranking score [3] | B-score functional assay [4] | B-score functional assay
28 | CN1CCN(C(c2ccccc2)c2ccc(Cl)cc2)CC1 (stereo not drawn) [Chlorcyclizine hydrochloride] | 1232.56 |  |  | 4.014 | 
29 | [H]/N=C(\N/C(=N/[H])NCCCCCCNC(=N)NC(=N)Nc1ccc(Cl)cc1)Nc1ccc(Cl)cc1 [Chlorhexidine] |  | 0.062 | 185.515 |  | 
30 | CC(=O)O[C@]1(C(C)=O)CC[C@H]2[C@@H]3C=C(Cl)C4=CC(=O)CC[C@]4(C)[C@H]3CC[C@@]21C [Chlormadinone acetate] |  | -1.751 | 87.43 |  | 
31 | Oc1c(Cl)cc(Cl)c2cccnc12 [Chloroxine] | 538.476 | -0.339 |  |  | 
32 | NC(=O)OCC(O)COc1ccc(Cl)cc1 (stereo not drawn) [Chlorphensin carbamate] | 1211.24 |  |  | 3.271 | 
33 | CN(C)CCCN1c2ccccc2Sc2ccc(Cl)cc21 [Chlorpromazine hydrochloride] |  | 1.542 | 173.367 |  | 
34 | NS(=O)(=O)c1cc(C2(O)NC(=O)c3ccccc32)ccc1Cl (stereo not drawn) [Chlorthalidone] | 532.184 | -1.121 |  |  | 
35 | COCCOC(=O)C1=C(C)NC(C)=C(C(=O)OC/C=C/c2ccccc2)C1c1cccc([N+](=O)[O-])c1 (stereo not drawn) [Cilnidipine] | 582.255 | 0.219 |  |  | 
36 | CN/C(=N/CCSCc1nc[nH]c1C)NC#N [Cimetidine] |  | -0.365 | 269.583 |  | 
37 | CC(C)(Oc1ccc(C2CC2(Cl)Cl)cc1)C(=O)O (stereo not drawn) [Ciprofibrate] | 539.316 | 0.025 |  |  | 
38 | COc1cc(N)c(Cl)cc1C(=O)NC1CCN(CCCOc2ccc(F)cc2)CC1OC (stereo not drawn) [Cisapride] |  | -0.847 | 235.1 |  | 
39 | CN(C)CCCC1(c2ccc(F)cc2)OCc2cc(C#N)ccc21 (stereo not drawn) [Citalopram Hydrobromide] |  | -1.909 | 277.496 |  | 
40 | Nc1nc(Cl)nc2c1ncn2[C@H]1C[C@H](O)[C@@H](CO)O1 [Cladribine] |  | -0.011 | 277.042 |  | 
41 | CC(C)(C)NCC(O)c1cc(Cl)c(N)c(Cl)c1 (stereo not drawn) [Clenbuterol hydrochloride] | 497.397 | -0.705 |  |  | 
42 | Oc1c(I)cc(Cl)c2cccnc12 [Clioquinol] | 627.53 | 0.225 |  |  | 
43 | CCC(=O)O[C@]1(C(=O)CCl)[C@@H](C)C[C@H]2[C@@H]3CCC4=CC(=O)C=C[C@]4(C)[C@@]3(F)[C@@H](O)C[C@@]21C [Clobetasol propionate] |  | -0.819 | 265.371 |  | 
44 | CC(CN(C)C)C(C)(O)Cc1ccc(Cl)cc1.Cl (stereo not drawn) [Clobutinol hydrochloride] | 492.244 | -0.006 |  |  | 
45 | C[C@@H]1C[C@H]2[C@@H]3C[C@H](F)C4=CC(=O)C=C[C@]4(C)[C@@]3(Cl)[C@@H](O)C[C@]2(C)[C@H]1C(=O)COC(=O)C(C)(C)C [Clocortolone pivalate] | 1150.27 |  |  | 4.298 | 
46 | CCCCCCC[N+](CC)(CC)CCCCc1ccc(Cl)cc1.Cc1ccc(S(=O)(=O)[O-])cc1 [Clofilium tosylate] |  | -2.506 | 143.363 |  | 
47 | Clc1cccc(Cl)c1N=C1NCCN1 [Clonidine hydrochloride] | 587.566 | 0.689 |  |  | 
48 | C[C@@H]1CCC[C@H](C)N1NC(=O)c1ccc(Cl)c(S(N)(=O)=O)c1 [Clopamide] |  | -0.164 | 216.069 |  | 
49 | C#CCN(C)CCCOc1ccc(Cl)cc1Cl [Clorgyline hydrochloride] | 645.563 | 0.335 |  |  | 
50 | Cc1cc(C(C#N)c2ccc(Cl)cc2)c(Cl)cc1NC(=O)c1cc(I)cc(I)c1O (stereo not drawn) [Closantel] |  | -0.508 | 203.568 |  | 
51 | Clc1ccccc1C(c1ccccc1)(c1ccccc1)n1ccnc1 [Clotrimazole] |  | -1.203 | 204.208 |  | 
52 | Cc1onc(-c2ccccc2Cl)c1C(=O)N[C@@H]1C(=O)N2[C@@H]1SC(C)(C)[C@@H]2C(=O)[O-].[Na+] [Cloxacillin sodium salt] |  | 0.027 | 243.228 |  | 
53 | COc1cc2c(c(OC)c1OC)-c1ccc(OC)c(=O)cc1[C@@H](NC(C)=O)CC2 [Colchicine] |  |  |  |  | -0.631
